The values that follow are results of earlier work, collected in patent US10813929B2, “Treating cancer with ATR inhibitors” (VERTEX PHARMACEUTICALS INCORPORATED, priority 2011, dated 2020).

This data set concerns pancreatic cancer. The note with it: treatment with gemcitabine, increased from 10%; cited from earlier work.

Take `Nc1ccn([C@@H]2O[C@H](CO)[C@@H](O)C2(F)F)c(=O)n1` [gemcitabine]: the 5-year survival is 20%.
